According to patent US10947218B2, “Aminopyridine derivatives and their use as selective ALK-2 inhibitors” (priority 2016, dated 2021):
Counter-ions that a name gives are not always drawn.

Legend:
[1] = Solubility in aqueous media (25° C., 24 h equilibration); assay type: physicochemical; settings: pH 9.0 borate buffer/8.6, target concentration 2 mg/mL
[2] = Dynamic Vapor Sorption (physical stability versus relative humidity); assay type: physicochemical
Description: The peaks found are: Wave number (in cm^−1): 3241(m), 2951(w), 2867(w), 1669(m), 1538(m), 1456(w), 1355(m), 1249(m), 1087(w), 979(w), 885(w), 797(w). […] Then 3 mL of heptane were added into the solution. White solid precipitated out. The solid was separated by suction filtration and dried at 40° C. under vacuum overnight. 380 mg of a fumarate salt amorphous form of 2-amino-N-(4-hydroxybicyclo[2.2.2]octan-1-yl)-5-(4-((1R,5S)-3-(tetrahydro-2H-pyran-4-yl)-3-azabicyclo[3.1.0]hexan-1-yl)phenyl)nicotinamide was obtained as a white solid. […] Resulting mixture was stirred at 50° C. for 0.5 hour and a clear solution was obtained. To the solution was slowly added a solution of 695.2 mg in 10 mL of acetone:water (95:5, v/v). Resulting suspension was gradually cooled to 25° C. and was kept stirring for 24 hours. Add 1.5 mL water to the suspension. The mixture was kept stirring at 50° C. for 12 hours and slowly cooled to 25° C. Solid was separated by suction filtration, washed with 10 mL acetone:water (90:10, v/v) once, and exposed to an ambient environment (about 25° C., 50% RH) overnight. […]

solubility [1]	SMILES	physical stability over relative humidity (DVS) ([2]; 25° C., FIG. 15)	physical stability over relative humidity (DVS) ([2]; 40° C., FIG. 16)
<LOQ	Nc1ncc(-c2ccc([C@@]34C[C@@H]3CN(C3CCOCC3)C4)cc2)cc1C(=O)NC12CCC(O)(CC1)CC2 [Free form Modification HA, 2-amino-N-(4-hydroxybicyclo[2.2.2]octan-1-yl)-5-(4-((1R,5S)-3-(tetrahydro-2H-pyran-4-yl)-3-azabicyclo[3.1.0]hexan-1-yl)phenyl)nicotinamide]	–	–
–	Nc1ncc(-c2ccc([C@@]34C[C@@H]3CN(C3CCOCC3)C4)cc2)cc1C(=O)NC12CCC(O)(CC1)CC2 [Fumarate salt Modification HA, 2-amino-N-(4-hydroxybicyclo[2.2.2]octan-1-yl)-5-(4-((1R,5S)-3-(tetrahydro-2H-pyran-4-yl)-3-azabicyclo[3.1.0]hexan-1-yl)phenyl)nicotinamide]	physically stable at least from 0% to 90% RH	physically stable at least from 10% to 90% RH
